From US20140378416A1, “SILYL-CONTAINING HETEROCYCLIC COMPOUNDS AND METHODS OF USE THEREOF FOR THE TREATMENT OF VIRAL DISEASES” (priority 2011, published 2014)
Like-named read-outs stand apart in the source and are kept apart here.

What was measured:
[1] = tested on: HCV replicon 1a; assay: Cell-based HCV replicon assay (TaqMan), genotype 1a replicon; details: HCV 1a replicon cells, replicon RNA by TaqMan on day 3, EC90 = concentration for ΔCT=3.2 over baseline
Description: (§1) Measurement of inhibition by compounds of the present invention was performed using the HCV replicon system. Several different replicons encoding different HCV genotypes or mutations were used. In addition, potency measurements were made using different formats of the replicon assay, including different ways of measurements and different plating formats. See Jan M. Vrolijk et al., A replicons-based bioassay for the measurement of interferons in patients with chronic hepatitis C, 110 J. VIROLOGICAL METHODS 201 (2003); Steven S. Carroll et al., Inhibition of Hepatitis C Virus RNA Replication by 2′-Modified Nucleoside Analogs, 278(14) J. BIOLOGICAL CHEMISTRY 11979 (2003). However, the underlying principles are common to all of these determinations, and are outlined below.
(§2) Compounds of the present invention were assayed for cell-based anti-HCV activity using the following protocol. Replicon cells were seeded at 5000 cells/well in 96-well collagen I-coated Nunc plates in the presence of the test compound. Various concentrations of test compound, typically in 10 serial 2-fold dilutions, were added to the assay mixture, with the starting concentration ranging from 250 μM to 1 μM. The final concentration of DMSO was 0.5%, fetal bovine serum was 5%, in the assay media. Cells were harvested on day 3 by the addition of 1× cell lysis buffer (Ambion cat #8721). The replicon RNA level was measured using real time PCR (TaqMan® assay). The amplicon was located in 5B. The PCR primers were: 5B.2F, ATGGACAGGCGCCCTGA (SEQ. ID NO. 1); 5B.2R, […] (SEQ. ID NO. 2); the probe sequence was FAM-labeled CACGCCATGCGCTGCGG (SEQ. ID NO. 3). GAPDH RNA was used as endogenous control and was amplified in the same reaction as NS5B (multiplex PCR) using primers and VIC-labeled probe recommended by the manufacturer (PE Applied Biosystem). The real-time […] reactions were run on ABI PRISM 7900HT Sequence Detection System using the following program: 48° C. for 30 minutes, 95° C. for 10 minutes, 40 cycles of 95° C. for 15 sec, 60° C. for 1 minute. The ACT values (CT5B-CTGAPDH) were plotted against the concentration of test compound and fitted to the sigmoid dose-response model using XLfit4 (MDL). EC50 was defined as the concentration of inhibitor necessary to achieve ΔCT=1 over the projected baseline; EC90 the concentration necessary to achieve ΔCT=3.2 over the baseline. Alternatively, to quantitate the absolute amount of replicon RNA, a standard curve was established by including serially diluted T7 transcripts of replicon RNA in the Taqman assay. All TaqMan® reagents were from PE Applied Biosystems. Such an assay procedure was described in detail in e.g. Malcolm et al., Antimicrobial Agents and Chemotherapy 50: 1013-1020 (2006).
(§3) HCV replicon EC50 assay data for various replicons and mutants was calculated for selected compounds of the present invention using this method and is provided in the tables above herein.

[2] = tested on: HCV replicon 1b; assay: Cell-based HCV replicon assay (TaqMan), genotype 1b replicon; details: HCV 1b replicon cells, replicon RNA by TaqMan on day 3, EC90 = concentration for ΔCT=3.2 over baseline
Description: as §1, §2, §3

[3] = tested on: HCV replicon 1a Y93H; assay: Cell-based HCV replicon assay (TaqMan), genotype 1a Y93H mutant replicon; details: Hepatitis C virus, 72 h, read-out: 1a Y93H EC90, HCV 1a Y93H mutant replicon cells, replicon RNA by TaqMan on day 3; EC90 = concentration for ΔCT=3.2 over baseline
Description: as §1, §2, §3

[4] = tested on: HCV replicon 2b; assay: Cell-based HCV replicon assay (TaqMan), genotype 2b replicon; details: EC90 = concentration for ΔCT=3.2 over baseline
Description: as §1, §2, §3

[5] = Hepatitis C virus, 72 h, read-out: 2b EC90, HCV 2b replicon cells, replicon RNA by TaqMan on day 3

COC(=O)N[C@@H](Cn1ncnn1)C(=O)N1CCC[C@H]1c1ncc(-c2ccc(-c3ccc(-c4cnc([C@@H]5C[Si](C)(C)CN5C(=O)[C@H](Cn5ncnn5)NC(=O)OC)[nH]4)cc3)cc2)[nH]1 [Compound 27]
EC90 ([1]; Hepatitis C virus, 72 h): 6.11 nM | EC90 ([2]; Hepatitis C virus, 72 h): 2.17 nM | EC90 [3]: 1000 nM | EC90 [4, 5]: 138 nM

COC(=O)N[C@@H](Cc1cn(C)cn1)C(=O)N1CCC[C@H]1c1ncc(-c2ccc(-c3ccc(-c4cnc([C@@H]5C[Si](C)(C)CN5C(=O)[C@H](Cc5cn(C)cn5)NC(=O)OC)[nH]4)cc3)cc2)[nH]1 [Compound 28]
EC90 ([1]; Hepatitis C virus, 72 h): 11.9 nM | EC90 ([2]; Hepatitis C virus, 72 h): 282 nM | EC90 [3]: 1000 nM | EC90 [4, 5]: 1000 nM

COC(=O)N[C@H](C(=O)N1CCC[C@@H]1c1ncc(-c2ccc(-c3ccc(-c4cnc([C@H]5C[Si](C)(C)CN5C(=O)[C@@H](NC(=O)OC)C5CC5)[nH]4)cc3)cc2)[nH]1)C1CC1 [Compound 22]
EC90 ([1]; Hepatitis C virus, 72 h): 1000 nM | EC90 ([2]; Hepatitis C virus, 72 h): 1000 nM | EC90 [3]: 1000 nM | EC90 [4, 5]: 1000 nM

COC(=O)N[C@@H](Cc1ccccc1)C(=O)N1CCC[C@H]1c1ncc(-c2ccc(-c3ccc(-c4cnc([C@@H]5C[Si](C)(C)CN5C(=O)[C@H](Cc5ccccc5)NC(=O)OC)[nH]4)cc3)cc2)[nH]1 [Compound 13]
EC90 ([1]; Hepatitis C virus, 72 h): 29.8 nM | EC90 ([2]; Hepatitis C virus, 72 h): 923 nM | EC90 [3]: 1000 nM | EC90 [4, 5]: 1000 nM

COC(=O)N[C@H](C(=O)N1C[Si](C)(C)C[C@H]1c1nc(Cl)c(-c2ccc(-c3ccc(-c4[nH]c([C@@H]5C[C@H]6C[C@H]6N5C(=O)[C@@H](NC(=O)OC)C5CC5)nc4Cl)cc3)cc2)[nH]1)C1CC1 [Compound 53]
EC90 ([1]; Hepatitis C virus, 72 h): 0.01 nM | EC90 ([2]; Hepatitis C virus, 72 h): 0.01 nM | EC90 [3]: 26.8 nM | EC90 [4, 5]: 11.3 nM

CC[C@H](C)[C@H](NC(=O)OC)C(=O)N1CCC[C@H]1c1ncc(-c2ccc(-c3ccc(-c4cnc([C@@H]5C[Si](C)(C)CN5C(=O)[C@@H](NC(=O)OC)[C@@H](C)CC)[nH]4)cc3)cc2)[nH]1 [Compound 14]
EC90 [1]: 3.22 nM | EC90 [2]: 23.8 nM | EC90 [3]: 1000 nM | EC90 ([4]; read-out: 2b EC90, HCV 2b replicon cells, replicon RNA by TaqMan on day 3): 1000 nM

COC(=O)N[C@H](C(=O)N1CCC[C@H]1c1ncc(-c2ccc(-c3ccc(-c4cnc([C@@H]5C[Si](C)(C)CN5C(=O)[C@@H](NC(=O)OC)C(C)(C)OC)[nH]4)cc3)cc2)[nH]1)C(C)(C)OC [Compound 35]
EC90 ([2]; Hepatitis C virus, 72 h): 0.09 nM | EC90 [3]: > 1000 nM | EC90 [4, 5]: > 1000 nM

COC(=O)N[C@@H](Cc1c[nH]c2ccccc12)C(=O)N1CCC[C@H]1c1ncc(-c2ccc(-c3ccc(-c4cnc([C@@H]5C[Si](C)(C)CN5C(=O)[C@H](Cc5c[nH]c6ccccc56)NC(=O)OC)[nH]4)cc3)cc2)[nH]1 [Compound 17]
EC90 ([1]; Hepatitis C virus, 72 h): 9.36 nM | EC90 ([2]; Hepatitis C virus, 72 h): 1000 nM | EC90 [3]: 1000 nM | EC90 [4, 5]: 1000 nM

COC(=O)N[C@H](Cc1c[nH]c2ccccc12)C(=O)N1CCC[C@H]1c1ncc(-c2ccc(-c3ccc(-c4cnc([C@@H]5C[Si](C)(C)CN5C(=O)[C@@H](Cc5c[nH]c6ccccc56)NC(=O)OC)[nH]4)cc3)cc2)[nH]1 [Compound 16]
EC90 ([1]; Hepatitis C virus, 72 h): 1000 nM | EC90 ([2]; Hepatitis C virus, 72 h): 1000 nM | EC90 [3]: 500 nM | EC90 [4, 5]: 1000 nM

CCC[C@H](NC(=O)OC)C(=O)N1CCC[C@H]1c1ncc(-c2ccc(-c3ccc(-c4cnc([C@@H]5C[Si](C)(C)CN5C(=O)[C@H](CCC)NC(=O)OC)[nH]4)cc3)cc2)[nH]1 [Compound 15]
EC90 ([1]; Hepatitis C virus, 72 h): 2.43 nM | EC90 ([2]; Hepatitis C virus, 72 h): 45.8 nM | EC90 [3]: 542 nM | EC90 [4, 5]: 515 nM

COC(=O)N[C@H](C(=O)N1C[Si](C)(C)C[C@H]1c1ncc(-c2ccc(-c3ccc(-c4ncc([C@@H]5C[C@H]6C[C@H]6N5C(=O)[C@@H](NC(=O)OC)C(C)C)[nH]4)cc3)cc2)[nH]1)C(C)C [Compound 69]
EC90 ([1]; Hepatitis C virus, 72 h): 0.84 nM | EC90 ([2]; Hepatitis C virus, 72 h): 0.019 nM | EC90 [3]: > 100 nM | EC90 [4, 5]: 371 nM

CC[C@@H](O)[C@H](NC(=O)OC)C(=O)N1CCC[C@H]1c1ncc(-c2ccc(-c3ccc(-c4cnc([C@@H]5C[Si](C)(C)CN5C(=O)[C@@H](NC(=O)OC)[C@H](O)CC)[nH]4)cc3)cc2)[nH]1 [Compound 38]
EC90 ([2]; Hepatitis C virus, 72 h): 0.21 nM | EC90 [3]: > 1000 nM | EC90 [4, 5]: > 1000 nM

COC(=O)N[C@H](C(=O)N1CCC[C@H]1c1ncc(-c2ccc(-c3ccc(-c4cnc([C@@H]5C[Si](C)(C)CN5C(=O)[C@@H](NC(=O)OC)C5CCOCC5)[nH]4)cc3)cc2)[nH]1)C1CCOCC1 [Compound 33]
EC90 ([2]; Hepatitis C virus, 72 h): 0.09 nM | EC90 [3]: 43 nM | EC90 [4, 5]: 7.6 nM

COC(=O)N[C@@H](CC(C)(C)C)C(=O)N1CCC[C@H]1c1ncc(-c2ccc(-c3ccc(-c4cnc([C@@H]5C[Si](C)(C)CN5C(=O)[C@H](CC(C)(C)C)NC(=O)OC)[nH]4)cc3)cc2)[nH]1 [Compound 36]
EC90 ([2]; Hepatitis C virus, 72 h): 0.03 nM | EC90 [3]: 617 nM | EC90 [4, 5]: 434 nM

COC(=O)N[C@@H](C(=O)N1CCC[C@@H]1c1ncc(-c2ccc(-c3ccc(-c4cnc([C@H]5C[Si](C)(C)CN5C(=O)[C@H](NC(=O)OC)C5CC5)[nH]4)cc3)cc2)[nH]1)C1CC1 [Compound 23]
EC90 ([1]; Hepatitis C virus, 72 h): 1.16 nM | EC90 [3]: 1000 nM | EC90 [4, 5]: 550 nM

COC(=O)N[C@@H](CC1CC1)C(=O)N1CCC[C@H]1c1ncc(-c2ccc(-c3ccc(-c4cnc([C@@H]5C[Si](C)(C)CN5C(=O)[C@H](CC5CC5)NC(=O)OC)[nH]4)cc3)cc2)[nH]1 [Compound 37]
EC90 ([2]; Hepatitis C virus, 72 h): 0.03 nM | EC90 [3]: 425 nM | EC90 [4, 5]: 888 nM

COC(=O)N[C@H](C(=O)N1C[Si](C)(C)C[C@H]1c1ncc(-c2ccc(-c3ccc(-c4[nH]c([C@@H]5CCCN5C(=O)[C@@H](NC(=O)OC)C5CCOCC5)nc4C4CC4)cc3)cc2)[nH]1)C1CCOCC1 [Compound 66]
EC90 ([1]; Hepatitis C virus, 72 h): 0.07 nM | EC90 [3]: 88 nM | EC90 [4, 5]: 1.6 nM

COC(=O)N[C@H](C(=O)N1CCC[C@H]1c1ncc(-c2ccc(-c3ccc(-c4cnc([C@@H]5C[Si](C)(C)CN5C(=O)[C@@H](NC(=O)OC)[C@H](O)C(C)C)[nH]4)cc3)cc2)[nH]1)[C@H](O)C(C)C [Compound 39]
EC90 ([2]; Hepatitis C virus, 72 h): 0.03 nM | EC90 [3]: > 1000 nM | EC90 [4, 5]: 510 nM

COC(=O)N[C@@H](CSC)C(=O)N1CCC[C@H]1c1ncc(-c2ccc(-c3ccc(-c4cnc([C@@H]5C[Si](C)(C)CN5C(=O)[C@H](CSC)NC(=O)OC)[nH]4)cc3)cc2)[nH]1 [Compound 32]
EC90 ([2]; Hepatitis C virus, 72 h): 0.03 nM | EC90 [3]: > 1000 nM | EC90 [4, 5]: 144 nM

COC(=O)NC1(C(=O)N2CCC[C@H]2c2ncc(-c3ccc(-c4ccc(-c5cnc([C@@H]6C[Si](C)(C)CN6C(=O)C6(NC(=O)OC)CCC6)[nH]5)cc4)cc3)[nH]2)CCC1 [Compound 31]
EC90 ([2]; Hepatitis C virus, 72 h): 2.2 nM | EC90 [3]: > 1000 nM | EC90 [4, 5]: > 1000 nM

COC(=O)N[C@H](C(=O)N1C[Si](C)(C)C[C@H]1c1nc(Cl)c(-c2ccc(-c3ccc(-c4[nH]c([C@@H]5C[C@H]6C[C@H]6N5C(=O)[C@@H](NC(=O)OC)C5CCOCC5)nc4Cl)cc3)cc2)[nH]1)C1CCOCC1 [Compound 54]
EC90 ([1]; Hepatitis C virus, 72 h): 0.023 nM | EC90 [3]: 2.5 nM | EC90 [4, 5]: 0.48 nM

COC(=O)N[C@H](C(=O)N1C[Si](C)(C)C[C@H]1c1nc(Cl)c(-c2ccc(-c3ccc(-c4[nH]c([C@@H]5C[C@H]6C[C@H]6N5C(=O)[C@@H](NC(=O)OC)C(C)C)nc4Cl)cc3)cc2)[nH]1)C(C)C [Compound 51]
EC90 ([1]; Hepatitis C virus, 72 h): 0.008 nM | EC90 [3]: 13.7 nM | EC90 [4, 5]: 2.9 nM

COC(=O)N[C@H](C(=O)N1C[Si](C)(C)C[C@H]1c1ncc(-c2ccc(-c3ccc(-c4[nH]c([C@@H]5C[C@H]6C[C@H]6N5C(=O)[C@@H](NC(=O)OC)C(C)C)nc4F)cc3)cc2)[nH]1)C(C)C [Compound 44]
EC90 ([1]; Hepatitis C virus, 72 h): 0.17 nM | EC90 [3]: 285 nM | EC90 [4, 5]: 168 nM
